Laboratory results from patent US7851473B2, “Amide compound” (Takeda Pharmaceutical Company Limited, priority 2004, dated 2010).

Tested on: rat local cerebral ischemic model
Test: Cerebroprotective effect in a rat cerebral ischemic model (middle cerebral artery occlusion)
Format: in vivo
Settings: SD rats, 120 minutes occlusion; intravenous, immediately after reperfusion and after 2, 4 and 6 hours; measured two days after ischemia; p<0.05
Description: The compound obtained in Example 1 as an FAAH inhibitory agent (hereinafter, referred to as Compound A) was administered intravenously to a rat local cerebral ischemic model, and the inhibitory effect of the compound on cerebral infarct volume was examined. For the cerebral ischemic model, 8 weeks-old male SD rats (CLEA Japan, Inc.) were used to generate a middle cerebral artery occlusion model (Kiyota, et al., Experimental Brain Research, 95, 388-396 (1993)). That is, under halothane anesthesia, a silicone-coated plug was inserted into the rat from the right common carotid artery to the origin of middle cerebral artery to induce occlusion for 120 minutes. Compound A of Example was intravenously administered immediately after reperfusion and after 2, 4 and 6 hours, respectively. Two days after the ischemia treatment, the rat brain was extracted, 2 mm-thick slices of anterior maxillary section were prepared therefrom, and the cerebral infarct volume was measured from their TTC-stained images by image analysis.

O=C(Nc1noc2ccccc12)N1CCN(c2nc(-c3ccccc3)ns2)CC1 [Compound A]
cerebral infarct volume compared with the solvent-administered group: significantly smaller
